Assay results from the CheMixHub viscosity set.

Test: xn = mol fraction of the nth substance listed

N[C@@H](Cc1c[nH]cn1)C(=O)O + O
Conditions	viscosity [mPa·s]
293.15 K, 101 kPa, x1 = 0.005413	1.128
298.15 K, 100 kPa, x1 = 0.000193	0.8927
298.15 K, 100 kPa, x1 = 0.00027	0.898
298.15 K, 100 kPa, x1 = 0.00036	0.899
298.15 K, 100 kPa, x1 = 0.000403	0.895
298.15 K, 100 kPa, x1 = 0.00063	0.904
298.15 K, 100 kPa, x1 = 0.00072	0.907
298.15 K, 100 kPa, x1 = 0.00074	0.8987
298.15 K, 100 kPa, x1 = 0.00081	0.907
298.15 K, 100 kPa, x1 = 0.00099	0.91
298.15 K, 100 kPa, x1 = 0.00117	0.913
298.15 K, 100 kPa, x1 = 0.00171	0.921
298.15 K, 100 kPa, x1 = 0.001798	0.9349
298.15 K, 100 kPa, x1 = 0.0018	0.927
298.15 K, 100 kPa, x1 = 0.002157	0.9434
298.15 K, 100 kPa, x1 = 0.002516	0.9518
298.15 K, 100 kPa, x1 = 0.002876	0.9604
298.15 K, 101 kPa, x1 = 0.00027	0.898
298.15 K, 101 kPa, x1 = 0.00063	0.9034
298.15 K, 101 kPa, x1 = 0.0013	0.9127
298.15 K, 101 kPa, x1 = 0.00207	0.9208
298.15 K, 101.3 kPa, x1 = 0.0004504	0.898
298.15 K, 101.3 kPa, x1 = 0.0008971	0.903
298.15 K, 101.3 kPa, x1 = 0.001791	0.913
298.15 K, 101.3 kPa, x1 = 0.002688	0.924
303.15 K, 100 kPa, x1 = 0.00036	0.804
303.15 K, 100 kPa, x1 = 0.00045	0.807
303.15 K, 100 kPa, x1 = 0.00054	0.807
303.15 K, 100 kPa, x1 = 0.00108	0.817
303.15 K, 100 kPa, x1 = 0.00126	0.821
303.15 K, 100 kPa, x1 = 0.00144	0.827
303.15 K, 100 kPa, x1 = 0.00153	0.824
303.15 K, 100 kPa, x1 = 0.00162	0.827
303.15 K, 100 kPa, x1 = 0.002157	0.8407
303.15 K, 100 kPa, x1 = 0.002516	0.8474
303.15 K, 100 kPa, x1 = 0.002876	0.8544
303.15 K, 101 kPa, x1 = 0.00027	0.8035
303.15 K, 101 kPa, x1 = 0.00063	0.8079
303.15 K, 101 kPa, x1 = 0.0013	0.8152
303.15 K, 101 kPa, x1 = 0.00243	0.8255
303.15 K, 101 kPa, x1 = 0.003563	0.8636
303.15 K, 101 kPa, x1 = 0.005413	0.8992
303.15 K, 101.3 kPa, x1 = 0.0004504	0.804
303.15 K, 101.3 kPa, x1 = 0.002239	0.824
308.15 K, 100 kPa, x1 = 0.00027	0.727
308.15 K, 100 kPa, x1 = 0.00054	0.727
308.15 K, 100 kPa, x1 = 0.00135	0.743
308.15 K, 100 kPa, x1 = 0.00143	0.74
308.15 K, 100 kPa, x1 = 0.00144	0.7434
308.15 K, 100 kPa, x1 = 0.00171	0.748
308.15 K, 100 kPa, x1 = 0.002157	0.7543
308.15 K, 100 kPa, x1 = 0.002516	0.7596
308.15 K, 100 kPa, x1 = 0.002876	0.7651
308.15 K, 101 kPa, x1 = 0.00027	0.724
308.15 K, 101 kPa, x1 = 0.00063	0.7274
308.15 K, 101 kPa, x1 = 0.00099	0.7304
308.15 K, 101 kPa, x1 = 0.0013	0.7334
308.15 K, 101 kPa, x1 = 0.00243	0.7421
308.15 K, 101.3 kPa, x1 = 0.0004504	0.723
308.15 K, 101.3 kPa, x1 = 0.0008971	0.728
308.15 K, 101.3 kPa, x1 = 0.001346	0.733
308.15 K, 101.3 kPa, x1 = 0.002239	0.743
308.15 K, 101.3 kPa, x1 = 0.002688	0.748
313.15 K, 100 kPa, x1 = 0.000358	0.6589
313.15 K, 100 kPa, x1 = 0.00036	0.657
313.15 K, 100 kPa, x1 = 0.00099	0.672
313.15 K, 100 kPa, x1 = 0.00171	0.682
313.15 K, 100 kPa, x1 = 0.001798	0.6769
313.15 K, 100 kPa, x1 = 0.002516	0.6853
313.15 K, 100 kPa, x1 = 0.002876	0.6895
313.15 K, 101 kPa, x1 = 0.00027	0.6566
313.15 K, 101 kPa, x1 = 0.00063	0.6592
313.15 K, 101 kPa, x1 = 0.00092	0.6773
313.15 K, 101 kPa, x1 = 0.00243	0.6716
313.15 K, 101 kPa, x1 = 0.003563	0.7141
313.15 K, 101.3 kPa, x1 = 0.0004504	0.657
313.15 K, 101.3 kPa, x1 = 0.001791	0.672
313.15 K, 101.3 kPa, x1 = 0.002239	0.677
313.15 K, 101.3 kPa, x1 = 0.002688	0.682
318.15 K, 100 kPa, x1 = 0.00027	0.603
318.15 K, 100 kPa, x1 = 0.000358	0.6026
318.15 K, 100 kPa, x1 = 0.000718	0.6065
318.15 K, 100 kPa, x1 = 0.00099	0.614
318.15 K, 100 kPa, x1 = 0.00108	0.61
318.15 K, 100 kPa, x1 = 0.00117	0.616
318.15 K, 100 kPa, x1 = 0.00135	0.618
318.15 K, 100 kPa, x1 = 0.00144	0.6135
318.15 K, 100 kPa, x1 = 0.00171	0.623
318.15 K, 100 kPa, x1 = 0.002157	0.62
318.15 K, 100 kPa, x1 = 0.002516	0.6232
318.15 K, 100 kPa, x1 = 0.002876	0.6262
318.15 K, 101.3 kPa, x1 = 0.0004504	0.598
318.15 K, 101.3 kPa, x1 = 0.0008971	0.603
318.15 K, 101.3 kPa, x1 = 0.001791	0.613
318.15 K, 101.3 kPa, x1 = 0.002239	0.618
318.15 K, 101.3 kPa, x1 = 0.002688	0.623
323.15 K, 101 kPa, x1 = 0.00092	0.5791
323.15 K, 101 kPa, x1 = 0.001804	0.5862
323.15 K, 101 kPa, x1 = 0.003563	0.6075
323.15 K, 101 kPa, x1 = 0.005413	0.6374
